For 23 compounds, EC50 results are on record in US20140045823A1 (Neurocrine Biosciences, Inc., priority 2012, published 2014).

For orientation: EC50 means the concentration needed to bring the measured effect to its halfway point. High values mean weaker potency, low ones greater potency.

This assay addresses T1, human GPR119 (Homo sapiens, UniProt Q8TDV5).
T1 construct: expression vector for human GPR119 cDNA (Acc. No. NP_848566); expressed in transfected cells; Min-6/hGPR119
T1 sequence (Q8TDV5 1-335): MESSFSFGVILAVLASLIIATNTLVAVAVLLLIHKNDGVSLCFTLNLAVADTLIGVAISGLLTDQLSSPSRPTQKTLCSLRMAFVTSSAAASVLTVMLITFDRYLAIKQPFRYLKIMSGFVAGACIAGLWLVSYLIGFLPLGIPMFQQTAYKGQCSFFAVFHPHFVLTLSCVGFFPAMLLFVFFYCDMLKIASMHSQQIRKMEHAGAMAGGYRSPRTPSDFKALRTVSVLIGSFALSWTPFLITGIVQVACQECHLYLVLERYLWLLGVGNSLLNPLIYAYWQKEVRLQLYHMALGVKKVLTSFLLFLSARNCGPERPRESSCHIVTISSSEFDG
The assay is described as follows: AlphaScreen cAMP assay in MIN6 cells stably transfected with human GPR119. The settings on record: Min-6/hGPR119 cells, 45 min at room temperature. It counts as cell-based. A digest of the protocol: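 cAMP accumulation quantified by AlphaScreen after 45 min compound stimulation at about 20 °C. Stimulation buffer: pH 7.4 HEPES saline with 0.5 mM IBMX, 0.1% BSA, 1% DMSO final. Cells: MIN6 stably transfected with human GPR119, 10000/well, cultured 24 h beforehand.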
On the technique in general: Alpha assays give light when donor and acceptor beads are brought close together.
As to `Cc1noc(C2CCN(C(=O)c3ccc(-c4ncc(C(=O)N(C5CC5)C5CCN(C(=O)OC(C)(C)C)CC5)cn4)cc3F)C2)n1` (centres unmarked) [Example 104, 4-[Cyclopropyl-(2-{3-fluoro-4-[3-(3-methyl-[1,2,4]oxadiazol-5-yl)-pyrrolidine-1-carbonyl]-phenyl}-pyrimidine-5-carbonyl)-amino]-piperidine-1-carboxylic acid tert-butyl ester], the EC50 turned out to be 180 nM. `CC(C)(C)OC(=O)N1CCC(N(C(=O)c2cnc(-c3ccc(C(=O)NCc4ccccn4)c(F)c3)nc2)C2CC2)CC1` [Example 105, 4-[Cyclopropyl-(2-{3-fluoro-4-[(pyridin-2-ylmethyl)-carbamoyl]-phenyl}-pyrimidine-5-carbonyl)-amino]-piperidine-1-carboxylic acid tert-butyl ester] gave an EC50 of 144 nM.

Take `COCC(C)N(C)C(=O)c1ccc(-c2ncc(C(=O)N(C3CC3)C3CCN(C(=O)OC(C)(C)C)CC3)cn2)cc1F` (centres unmarked) [Example 106, 4-[Cyclopropyl-(2-{3-fluoro-4-[(2-methoxy-1-methyl-ethyl)-methyl-carbamoyl]-phenyl}-pyrimidine-5-carbonyl)-amino]-piperidine-1-carboxylic acid tert-butyl ester]: the midpoint of the response, the EC50, lay at 253 nM. For the compound `COC(C)CN(C)C(=O)c1ccc(-c2ncc(C(=O)N(C3CC3)C3CCN(C(=O)OC(C)(C)C)CC3)cn2)cc1F` (centres unmarked) [Example 107, 4-[Cyclopropyl-(2-{3-fluoro-4-[(2-methoxy-propyl)-methyl-carbamoyl]-phenyl}-pyrimidine-5-carbonyl)-amino]-piperidine-1-carboxylic acid tert-butyl ester], the EC50 was 114 nM. The result for `COC[C@@H]1CCCN1C(=O)c1ccc(-c2ncc(C(=O)N(C3CC3)C3CCN(C(=O)OC(C)(C)C)CC3)cn2)cc1F` [Example 108, 4-(Cyclopropyl-{2-[3-fluoro-4-(2-methoxymethyl-pyrrolidine-1-carbonyl)-phenyl]-pyrimidine-5-carbonyl}-amino)-piperidine-1-carboxylic acid tert-butyl ester] reads 312 nM; that for `CC(C)(C)OC(=O)N1CCC(N(C(=O)c2cnc(-c3ccc(C(=O)NCC#N)c(F)c3)nc2)C2CC2)CC1` [Example 109, 4-({2-[4-(Cyanomethyl-carbamoyl)-3-fluoro-phenyl]-pyrimidine-5-carbonyl}-cyclopropyl-amino)-piperidine-1-carboxylic acid tert-butyl ester], 85 nM; that for `CC(C)(C)OC(=O)N1CCC(N(C(=O)c2cnc(-c3ccc(C(=O)Nc4cccc(CO)c4)c(F)c3)nc2)C2CC2)CC1` [Example 110, 4-(Cyclopropyl-{2-[3-fluoro-4-(3-hydroxymethyl-phenylcarbamoyl)-phenyl]-pyrimidine-5-carbonyl}-amino)-piperidine-1-carboxylic acid tert-butyl ester], 141 nM. Compound `Cc1cnc(CNC(=O)c2ccc(-c3ncc(C(=O)N(C4CC4)C4CCN(C(=O)OC(C)(C)C)CC4)cn3)cc2F)s1` [Example 111, 4-[Cyclopropyl-(2-{3-fluoro-4-[(5-methyl-thiazol-2-ylmethyl)-carbamoyl]-phenyl}-pyrimidine-5-carbonyl)-amino]-piperidine-1-carboxylic acid tert-butyl ester] had a 50% effective concentration (EC50) of 64 nM.

In turn, `CC(C)(C)OC(=O)N1CCC(N(C(=O)c2cnc(-c3ccc(C(=O)Nc4ccn[nH]4)c(F)c3)nc2)C2CC2)CC1` [Example 112, 4-(Cyclopropyl-{2-[3-fluoro-4-(2H-pyrazol-3-ylcarbamoyl)-phenyl]-pyrimidine-5-carbonyl}-amino)-piperidine-1-carboxylic acid tert-butyl ester] registered an EC50 of 220 nM. As to `CN(CCO)C(=O)c1ccc(-c2ncc(C(=O)N(C3CC3)C3CCN(C(=O)OC(C)(C)C)CC3)cn2)cc1F` [Example 113, 4-[Cyclopropyl-(2-{3-fluoro-4-[(2-hydroxy-ethyl)-methyl-carbamoyl]-phenyl}-pyrimidine-5-carbonyl)-amino]-piperidine-1-carboxylic acid tert-butyl ester], the EC50 amounted to 597 nM. `COC[C@H]1CCCN1C(=O)c1ccc(-c2ncc(C(=O)N(C3CC3)C3CCN(C(=O)OC(C)(C)C)CC3)cn2)cc1F` [Example 114, 4-(Cyclopropyl-{2-[3-fluoro-4-(2-methoxymethyl-pyrrolidine-1-carbonyl)-phenyl]-pyrimidine-5-carbonyl}-amino)-piperidine-1-carboxylic acid tert-butyl ester] registered an EC50 of 378 nM. To `CN(CC1CCOC1)C(=O)c1ccc(-c2ncc(C(=O)N(C3CC3)C3CCN(C(=O)OC(C)(C)C)CC3)cn2)cc1F` (centres unmarked) [Example 115, 4-[Cyclopropyl-(2-{3-fluoro-4-[methyl-(tetrahydro-furan-3-ylmethyl)-carbamoyl]-phenyl}-pyrimidine-5-carbonyl)-amino]-piperidine-1-carboxylic acid tert-butyl ester] belongs 164 nM; to `CC(C)(C)OC(=O)N1CCC(N(C(=O)c2cnc(-c3ccc(C(=O)Nc4ccc(O)cc4)c(F)c3)nc2)C2CC2)CC1` [Example 116, 4-(Cyclopropyl-{2-[3-fluoro-4-(4-hydroxy-phenylcarbamoyl)-phenyl]-pyrimidine-5-carbonyl}-amino)-piperidine-1-carboxylic acid tert-butyl ester], 445 nM; to `CC(C)(C)OC(=O)N1CCC(N(C(=O)c2cnc(-c3ccc(C(=O)N4CCCOCC4)c(F)c3)nc2)C2CC2)CC1` [Example 117, 4-(Cyclopropyl-{2-[3-fluoro-4-([1,4]oxazepane-4-carbonyl)-phenyl]-pyrimidine-5-carbonyl}-amino)-piperidine-1-carboxylic acid tert-butyl ester], 275 nM. To `CO[C@@H]1CCN(C(=O)c2ccc(-c3ncc(C(=O)N(C4CC4)C4CCN(C(=O)OC(C)(C)C)CC4)cn3)cc2F)C1` [Example 118, 4-(Cyclopropyl-{2-[3-fluoro-4-(3-methoxy-pyrrolidine-1-carbonyl)-phenyl]-pyrimidine-5-carbonyl}-amino)-piperidine-1-carboxylic acid tert-butyl ester] belongs 129 nM.

In the case of `Cc1nc(CNC(=O)c2ccc(-c3ncc(C(=O)N(C4CC4)C4CCN(C(=O)OC(C)(C)C)CC4)cn3)cc2F)cs1` [Example 119, 4-[Cyclopropyl-(2-{3-fluoro-4-[(2-methyl-thiazol-4-ylmethyl)-carbamoyl]-phenyl}-pyrimidine-5-carbonyl)-amino]-piperidine-1-carboxylic acid tert-butyl ester], the EC50 was 147 nM.

Compound `COc1ccc(NC(=O)c2ccc(-c3ncc(C(=O)N(C4CC4)C4CCN(C(=O)OC(C)(C)C)CC4)cn3)cc2F)c(OC)c1` [Example 120, 4-(Cyclopropyl-{2-[4-(2,4-dimethoxy-phenylcarbamoyl)-3-fluoro-phenyl]-pyrimidine-5-carbonyl}-amino)-piperidine-1-carboxylic acid tert-butyl ester] had an EC50 of 212 nM. In the case of `CC(C)(C)OC(=O)N1CCC(N(C(=O)c2cnc(-c3ccc(C(=O)Nc4ccc(CO)cc4)c(F)c3)nc2)C2CC2)CC1` [Example 121, 4-(Cyclopropyl-{2-[3-fluoro-4-(4-hydroxymethyl-phenylcarbamoyl)-phenyl]-pyrimidine-5-carbonyl}-amino)-piperidine-1-carboxylic acid tert-butyl ester], it took 180 nM to reach a half-maximal effect (EC50). Compound `COc1ccc(NC(=O)c2ccc(-c3ncc(C(=O)N(C4CC4)C4CCN(C(=O)OC(C)(C)C)CC4)cn3)cc2F)cn1` [Example 122, 4-(Cyclopropyl-{2-[3-fluoro-4-(6-methoxy-pyridin-3-ylcarbamoyl)-phenyl]-pyrimidine-5-carbonyl}-amino)-piperidine-1-carboxylic acid tert-butyl ester] returned an EC50 of 55 nM. For the compound `CC(C)(C)OC(=O)N1CCC(N(C(=O)c2cnc(-c3ccc(C(=O)NCCS(C)(=O)=O)c(F)c3)nc2)C2CC2)CC1` [Example 123, 4-(Cyclopropyl-{2-[3-fluoro-4-(2-methanesulfonyl-ethylcarbamoyl)-phenyl]-pyrimidine-5-carbonyl}-amino)-piperidine-1-carboxylic acid tert-butyl ester], the EC50 worked out at 637 nM.

`CN(CCOCC1CC1)C(=O)c1ccc(-c2ncc(C(=O)N(C3CC3)C3CCN(C(=O)OC(C)(C)C)CC3)cn2)cc1F` [Example 124, 4-[Cyclopropyl-(2-{4-[(2-cyclopropylmethoxy-ethyl)-methyl-carbamoyl]-3-fluoro-phenyl}-pyrimidine-5-carbonyl)-amino]-piperidine-1-carboxylic acid tert-butyl ester] registered an EC50 of 102 nM. To `CC(C)(C)OC(=O)N1CCC(N(C(=O)c2cnc(-c3ccc(C(=O)N4CCC[C@H]4C#N)c(F)c3)nc2)C2CC2)CC1` [Example 125, 4-({2-[4-(2-Cyano-pyrrolidine-1-carbonyl)-3-fluoro-phenyl]-pyrimidine-5-carbonyl}-cyclopropyl-amino)-piperidine-1-carboxylic acid tert-butyl ester] belongs 180 nM; to `CC(C)(C)OC(=O)N1CCC(N(C(=O)c2cnc(-c3ccc(C(=O)NCc4ccncc4)c(F)c3)nc2)C2CC2)CC1` [Example 126, 4-[Cyclopropyl-(2-{3-fluoro-4-[(pyridin-4-ylmethyl)-carbamoyl]-phenyl}-pyrimidine-5-carbonyl)-amino]-piperidine-1-carboxylic acid tert-butyl ester], 99 nM.
